Patent publication US9409975B2, “Antibody binding microbial heparin binding motif to retard or prevent microbial biofilm formation on implanted medical devices” (priority 2012, dated 2016)
“Also recorded” adds a separate entry of the source.

Legend:
C. albicans = assay: Histatin killing assay after heparin preincubation; type: cell-based, Candida albicans; details: 500 units/ml heparin, then histatin 5 (15 μM)
Experimental: In order to evaluate the consequences of removal of Ssa1 and Ssa2 (Table 4), both targets of histatin, a histatin killing assay was performed as follows. C. albicans strains were grown to late log phase overnight in YPD. A single colony was suspended in 1 ml YPD, diluted 1:500 into 10 ml YPD, and incubated overnight at 30° C. and 225 rpm to OD600 1.0. Yeast cells were washed twice in PBS and 2×10^4 cells suspended in 250 μl RPMI+10 mM HEPES, pH 7.0, with or without 500 units/ml heparin (Sigma). The cells were incubated at 37° C. for one hour with shaking, washed twice with 10 mM phosphate buffer, pH 7.4, and suspended in 20 μl phosphate buffer. Histatin 5 (final concentration 15 μM; Peptides International) or 10 mM phosphate buffer was added to the preincubated cells (total volume 40 μl) and incubated further at 37° C. for 90 minutes with shaking. YPD (360 ul) was added to each tube, a 40 μl aliquot spread onto YPD plates, and colonies counted after two days. The effect of heparin treatment was determined by the formula % change=[(cfu+heparin)−(cfu−heparin)]/(cfu+heparin).

[1] = tested on: Candida albicans BWP17 wt planktonic growth; assay: Growth curves and doubling times in presence or absence of soluble heparin; type: cell-based; details: 100 units/ml heparin
Experimental: For growth curves in the presence or absence of soluble heparin, a single colony of BWP17 wt was inoculated into 3 ml YPD medium and incubated overnight at 30° C. with shaking at 225 rpm. Overnight cultures were diluted to an OD600 of 0.1 in 5 ml of YPD, RPMI-MOPS, RPMI-HEPES or CSM in a 50 ml conical polypropylene tube. Preservative-free pharmaceutical heparin (1000 units/ml) was added to yield a final concentration of 100 units/ml in the heparin-treated samples. Cultures were grown at 30° C. with shaking and OD600 measured periodically. Doubling times (td) were calculated based on the equation td=ln 2/μ (μ=specific growth rate (48). One hundred units/ml heparin, the concentration recommended to prevent clotting of central venous catheters (20), had no effect on doubling times of planktonic yeast cells grown in YPD, RPMI-HEPES, RPMI-MOPS or CSM, as shown in FIGS. 2A and 2B.
A single copy of Int1, including 1450 bp upstream and 548 bp downstream from the Int1 open reading frame (www.candidagenome.org, Assembly 21), was integrated into the hisG locus of the int1−/− strain VBIDM2 (54) to produce the reconstituted strain KO509. Briefly, a copy of Int1 was generated by PCR, using primers 1 and 2 with BWP17 wt DNA as template and cloned into the SacI/MluI sites of pGEMHIS (51) to create pKO509. pKO509 was digested with SwaI and transformed into VBIDM2 to create the reconstituted strain KO509. PCR-mediated overlap extension mutagenesis (55) was used to produce copies of Int1 mutated at putative heparin binding domains. Briefly, primer pairs 1+3 and 2+4 (or 1+5 and 2+6) were used to produce two overlapping fragments of INT1 in which putative heparin binding domains were mutated (FKKRFFKL (SEQ ID NO: 2)→FKAAFFKL (SEQ ID NO: 53) or KQKKHQ (SEQ ID NO: 64)→KQAAHQ (SEQ ID NO: 63)), and a full length mutated sequence generated in a third […] using primers 1+2 with the fragments as template. […] Percent binding of each mutant to heparin in the ELISA assay was compared to the wild type according to the formula [Absorbance595 mutant]/[Absorbance595 wild type]×100.

[2] = tested on: Candida albicans BWP17 wt; assay: Percent hyphae by flow cytometry with or without heparin; type: cell-based; details: 100 units/ml heparin; YPD 30° C. or RPMI-HEPES 37° C.
Experimental: Flow cytometry was performed by inoculating a single colony of BWP17 wt into 3 ml YPD medium and incubating overnight at 30° C. with shaking at 225 rpm. […] One ml aliquots of each mixture were removed, pelleted (7,000 rpm for 3 min), washed twice with PBS, and reconstituted in 1 ml PBS. Flow cytometry analysis was performed using the Imagestream^X flow cytometer (Amnis, Seattle Wash.) equipped with a 405 nm, 488 nm, 653 nm, laser and multi-mag function. The 40× magnification, 10 mm/sec flow rate, and 488 nm laser were used to collect SSC and Brightfield parameters. The flow cell allows particles up to 100 μm wide (height unlimited) to be collected in the instrument. INSPIRE (v.6.0) software was used to acquire events. Software analysis using IDEAS (v5.0) identified percent hyphae using aspect ratio, height and width features using the side scatter (Channel 6) and brightfield (Channel 1) parameters. Objects were selected within each file and tagged to use as identification of truth sets within the population.

heparin
decrease in histatin-mediated killing (C. albicans; INT1 double disruptant): 1.5%
decrease in histatin-mediated killing (C. albicans; wild type C. albicans): 25%
growth curves in presence or absence of soluble heparin [1]: identical
doubling times of wild type, Δint1 mutant, INT1 reintegrant and Motif 1, Motif 4, Motifs 1 and 4 reintegrants with and without heparin ([1]; 30° C., RPMI-HEPES): no difference
effect on doubling times of planktonic yeast cells ([1]; 30° C., YPD, RPMI-HEPES, RPMI-MOPS or CSM): no effect; also recorded: identical
percent hyphae by flow cytometry [2]: did not differ
